Active and inactive are the calls of the source. The calls are words filed in the database; no cut-off is given here.
Assays:
Pseudomonas aeruginosa [1] = experiment: Antibacterial activity against Pseudomonas aeruginosa 52097 assessed as inhibition of bacterial growth incubated for 24 hrs by tube microdilution assay; format: functional
Staphylococcus aureus [2] = experiment: Antibiofilm activity against Staphylococcus aureus ATCC 6538 assessed as inhibition of biofilm formation at 1X to 10XMIC incubated for 24 hrs by crystal violet staining based analysis; format: functional, organism-based
Staphylococcus aureus [3] = experiment: Antibacterial activity against Staphylococcus aureus 11842 assessed as inhibition of bacterial growth incubated for 24 hrs by tube microdilution assay; format: functional
Pseudomonas aeruginosa [4] = experiment: Ratio of MIC for antibacterial activity against Pseudomonas aeruginosa ATCC 27853 measured following incubation of drug with mouse plasma for 8 hrs to MIC for antibacterial activity against Pseudomonas aeruginosa ATCC 27853; format: functional
Staphylococcus aureus [5] = experiment: Antibacterial activity against methicillin-resistant Staphylococcus aureus 12 assessed as inhibition of bacterial growth incubated for 24 hrs by tube microdilution assay; format: functional
Staphylococcus aureus [6] = experiment: Antibacterial activity against Staphylococcus aureus ATCC 6538 infected in BALB/c mouse assessed as inhibition of bacterial colonization on wounded skin at 0.5 mg/ml applied on skin and measured after 2 hrs relative to control; format: functional
Cell membrane [7] = experiment: Induction of membrane permeabilization in Escherichia coli 0894 assessed as increase in fluorescence intensity at 1X to 10XMIC measured for 90 mins by propidium iodide staining based fluorescence analysis; format: subcellular
Pseudomonas aeruginosa [8] = experiment: Antibacterial activity against Pseudomonas aeruginosa 90068 assessed as inhibition of bacterial growth incubated for 24 hrs by tube microdilution assay; format: functional
Staphylococcus aureus [9] = experiment: Antibacterial activity against methicillin-resistant Staphylococcus aureus 41 assessed as inhibition of bacterial growth incubated for 24 hrs by tube microdilution assay; format: functional
Pseudomonas aeruginosa [10] = experiment: Antibiofilm activity against preformed Pseudomonas aeruginosa ATCC 27853 biofilms assessed as biofilm eradication at 1X to 10XMIC incubated for 24 hrs by crystal violet staining based analysis; format: functional, organism-based
Staphylococcus aureus [11] = experiment: Bactericidal activity against Staphylococcus aureus ATCC 6538 assessed as elimination of bacterial cells at 5X to 10X MIC measured within 3 hrs by killing kinetic assay; format: functional
Acinetobacter baumannii [12] = experiment: Antibacterial activity against Acinetobacter baumannii ATCC 19606 infected in BALB/c mouse assessed as inhibition of bacterial colonization on wounded skin at 0.1 to 2 mg/ml applied on skin and measured after 2 hrs; format: functional, organism-based; details: dose 0.1-2 mg/ml
Staphylococcus aureus [13] = experiment: Induction of bacterial cell rupture in Staphylococcus aureus ATCC 6538 assessed as membrane rupture, roughening and blebbing of membrane at 5XMIC measured after 30 mins by scanning electron microscopy; format: functional, organism-based
Cell membrane [14] = experiment: Induction of membrane permeabilization in Pseudomonas aeruginosa 17068 assessed as increase in fluorescence intensity at 1X to 10XMIC measured for 90 mins by propidium iodide staining based fluorescence analysis; format: subcellular
Staphylococcus aureus [15] = experiment: Antibacterial activity against methicillin-resistant Staphylococcus aureus Z assessed as inhibition of bacterial growth incubated for 24 hrs by tube microdilution assay; format: functional
Pseudomonas aeruginosa [16] = experiment: Antipersister-activity against Pseudomonas aeruginosa ATCC 27853 assessed as elimination of persister cells preincubated adherent persistent cells with colistin for 24 hrs followed by incubation with drug for 12 hrs; format: functional, organism-based
Pseudomonas aeruginosa [17] = experiment: Antibacterial activity against Pseudomonas aeruginosa 17068 assessed as inhibition of bacterial growth incubated for 24 hrs by tube microdilution assay; format: functional
Acinetobacter baumannii [18] = experiment: Antibiofilm activity against preformed Acinetobacter baumannii ATCC 19606 biofilms assessed as biofilm eradication at 1X to 10XMIC incubated for 24 hrs by crystal violet staining based analysis; format: functional, organism-based
Staphylococcus aureus [19] = experiment: Antibacterial activity against methicillin-resistant Staphylococcus aureus 22 assessed as inhibition of bacterial growth incubated for 24 hrs by tube microdilution assay; format: functional
Acinetobacter baumannii [20] = experiment: Antibacterial activity against Acinetobacter baumannii 0357 assessed as inhibition of bacterial growth incubated for 24 hrs by tube microdilution assay; format: functional
Pseudomonas aeruginosa [21] = experiment: Bactericidal activity against Pseudomonas aeruginosa ATCC 27853 assessed as bacterial cell killing measured after 60 passages; format: functional, organism-based
Staphylococcus aureus [22] = experiment: Antibacterial activity against methicillin-resistant Staphylococcus aureus 11 assessed as inhibition of bacterial growth incubated for 24 hrs by tube microdilution assay; format: functional
Staphylococcus aureus [23] = experiment: Antibacterial activity against Staphylococcus aureus ATCC 6538 assessed as inhibition of bacterial growth by tube microdilution assay; format: functional
Staphylococcus aureus [24] = experiment: Antibacterial activity against Staphylococcus aureus 220823 assessed as inhibition of bacterial growth incubated for 24 hrs by tube microdilution assay; format: functional
Acinetobacter baumannii [25] = experiment: Antibacterial activity against Acinetobacter baumannii ATCC 19606 assessed as inhibition of bacterial growth by tube microdilution assay; format: functional
Pseudomonas aeruginosa [26] = experiment: Induction of bacterial cell rupture in Pseudomonas aeruginosa ATCC 27853 assessed as induction of internal perturbations and breaks along the membrane at 5XMIC measured after 30 mins transmission electron microscopy; format: functional, organism-based
Staphylococcus aureus [27] = experiment: Antibacterial activity against methicillin-resistant Staphylococcus aureus 21 assessed as inhibition of bacterial growth incubated for 24 hrs by tube microdilution assay; format: functional
HEK-293T = experiment: Cytotoxicity against HEK293T cells assessed as effect on cell viability at 3.13 to 400 ug/ml incubated for 24 hrs by CCK-8 assay; format: toxicity, cell-based; details: human, dose 3.13-400 µg/ml
Cell membrane [28] = experiment: Induction of membrane permeabilization in Acinetobacter baumannii 0357 assessed as increase in fluorescence intensity at 1X to 10XMIC measured for 90 mins by propidium iodide staining based fluorescence analysis; format: subcellular
Escherichia coli [29] = experiment: Antibacterial activity against Escherichia coli 0894 assessed as inhibition of bacterial growth incubated for 24 hrs by tube microdilution assay; format: functional
Staphylococcus aureus [30] = experiment: Bactericidal activity against Staphylococcus aureus ATCC 6538 assessed as bacterial cell killing measured after 35 passages; format: functional, organism-based
Staphylococcus aureus [31] = experiment: Antibacterial activity against methicillin-resistant Staphylococcus aureus 51 assessed as inhibition of bacterial growth incubated for 24 hrs by tube microdilution assay; format: functional
Staphylococcus aureus [32] = experiment: Antibacterial activity against Staphylococcus aureus 15192 assessed as inhibition of bacterial growth incubated for 24 hrs by tube microdilution assay; format: functional
Staphylococcus aureus [33] = experiment: Bactericidal activity against Staphylococcus aureus ATCC 6538 assessed as elimination of bacterial cells at 5XMIC measured within 1 hr by killing kinetic assay; format: functional
Pseudomonas aeruginosa [34] = experiment: Antibacterial activity against Pseudomonas aeruginosa 60357 assessed as inhibition of bacterial growth incubated for 24 hrs by tube microdilution assay; format: functional
Pseudomonas aeruginosa [35] = experiment: Bactericidal activity against Pseudomonas aeruginosa ATCC 27853 assessed as elimination of bacterial cells at 5XMIC measured within 1 hr by killing kinetic assay; format: functional
Staphylococcus aureus [36] = experiment: Induction of bacterial cell rupture in Staphylococcus aureus ATCC 6538 assessed as membrane rupture, roughening and blebbing of membrane at 5XMIC measured after 30 mins by transmission electron microscopy; format: functional, organism-based
[37] = Toxicity against C57BL/6J mouse assessed as behavioural changes at 10 to 20 mg/kg, iv measured for 48 hrs post-injection; format: organism-based; details: in vivo, dose 10-20 mg/kg
Escherichia coli [38] = experiment: Antibacterial activity against Escherichia coli 1007 assessed as inhibition of bacterial growth incubated for 24 hrs by tube microdilution assay; format: functional
Staphylococcus aureus [39] = experiment: Antibacterial activity against methicillin-resistant Staphylococcus aureus 52 assessed as inhibition of bacterial growth incubated for 24 hrs by tube microdilution assay; format: functional
Staphylococcus aureus [40] = experiment: Antibacterial activity against Staphylococcus aureus 15775 assessed as inhibition of bacterial growth incubated for 24 hrs by tube microdilution assay; format: functional

## H-RRGIKKFIKKVKKVKKAI-OH
Pseudomonas aeruginosa [1]
  MIC: 1.17 µg/mL
Staphylococcus aureus [2]
  Activity: Dose-dependent-effect
Staphylococcus aureus [3]
  MIC: 2.34 µg/mL
Pseudomonas aeruginosa [4]
  Ratio: 4
Staphylococcus aureus [5]
  MIC: 2.34 µg/mL
Staphylococcus aureus [6]
  inhibition in vivo at 500 µg/mL: 71.8%
Cell membrane [7]
  Activity: Dose-dependent-effect
Pseudomonas aeruginosa [8]
  MIC: 1.17 µg/mL
Staphylococcus aureus [9]
  MIC: 2.34 µg/mL
Pseudomonas aeruginosa [10]
  Activity: Active
Staphylococcus aureus [11]
  Activity: 100%
Acinetobacter baumannii [12]
  Activity: Dose-dependent-effect; Less Efficacy Compared To Colistin, Reflected By Reduced Efficacy After Plasma Treatment
Staphylococcus aureus [13]
  Activity: Active; Roughening And Blebbing Of Membrane Is Less Pronounced Than In Pseudomonas Aeruginosa
Cell membrane [14]
  Activity: Dose-dependent-effect
Staphylococcus aureus [15]
  MIC: 2.34 µg/mL
Pseudomonas aeruginosa [16]
  Activity: Dose-dependent-effect
Pseudomonas aeruginosa [17]
  MIC: 1.17 µg/mL
Acinetobacter baumannii [18]
  Activity: Active
Staphylococcus aureus [19]
  MIC: 2.34 µg/mL
Acinetobacter baumannii [20]
  MIC: 2.34 µg/mL
Pseudomonas aeruginosa [21]
  Activity: Active
Staphylococcus aureus [22]
  MIC: 2.34 µg/mL
Staphylococcus aureus [23]
  MIC: 2.34 µg/mL
Staphylococcus aureus [24]
  MIC: 2.34 µg/mL
Acinetobacter baumannii [25]
  MIC: 2.34 µg/mL
Pseudomonas aeruginosa [26]
  Activity: Active
Staphylococcus aureus [27]
  MIC: 2.34 µg/mL
HEK-293T
  Activity: Non-toxic
Cell membrane [28]
  Activity: Dose-dependent-effect
Escherichia coli [29]
  MIC: 9.37 µg/mL
Staphylococcus aureus [30]
  Activity: Active
Staphylococcus aureus [31]
  MIC: 2.34 µg/mL
Staphylococcus aureus [32]
  MIC: 2.34 µg/mL
Staphylococcus aureus [33]
  Activity: 99.7%
Pseudomonas aeruginosa [34]
  MIC: 1.17 µg/mL
Pseudomonas aeruginosa [35]
  Activity: 96.6%
Staphylococcus aureus [36]
  Activity: Active; Roughening And Blebbing Of Membrane Is Less Pronounced Than In Pseudomonas Aeruginosa
[37]
  Activity: Non-toxic
Escherichia coli [38]
  MIC: 9.37 µg/mL
Staphylococcus aureus [39]
  MIC: 2.34 µg/mL
Staphylococcus aureus [40]
  MIC: 2.34 µg/mL

From ChEMBL document CHEMBL6092216, “Development of α-Helical Antimicrobial Peptides with Imperfect Amphipathicity for Superior Activity and Selectivity” (J Med Chem, 2024)
